Results from patent US20080261314A1, “FLUORESCENT PROBE FOR ZINC” (DAIICHI PURE CHEMICALS CO., LTD., priority 2001, published 2008).

Columns and labels:
Format in all cases: physicochemical
[1] = Ratio measurement of fluorescence intensities at two excitation wavelengths on addition of zinc ions; conditions: excitation 335 nm and 354 nm, fluorescence 530 nm; 20 μM compound, ZnSO4 up to 20 μM, HEPES pH 7.4
Description: (§1) To a 20 μM solution of Compound (11) in 100 mM HEPES buffer (pH 7.4), ZnSO4 was added up to 20 μM. Change of the ratio of fluorescence intensities at excitation wavelengths at 335 nm and 354 nm with the fluorescence wavelengths fixed at 530 nm are shown (FIG. 2 (A)). To a 20 μM solution of Compound (11) in 100 mM HEPES buffer (pH 7.4), sodium ions, calcium ions, potassium ions, or magnesium ions were added up to 400 μM. Changes of the ratio of fluorescence intensities at excitation wavelengths at 335 nm and 354 nm with the fluorescence wavelengths fixed at 530 nm are shown (FIG. 2 (B)).
(§2) Studies of fluorescence characteristics and the ratio measurements of Compound (14) and (15) were conducted in the same manners as those described in Example 2 and Example 3. Fluorescent characteristics of Compound (14) and (15) before and after addition of zinc ions (20 μM ZnSO4) are shown in the following Table 2.

[2] = Ratio measurement on addition of ions other than zinc ion (selectivity)
Description: as §1, §2

[3] = Spectrum measurement (UV, excitation and fluorescence spectra) on addition of ZnSO4
Description: To a 15 μM solution of Compound (14) in 100 mM HEPES buffer (pH 7.4), ZnSO4 was added up to 15 μM. Spectra of the solution were measured under the measurement condition described in Example 2. The same spectral measurement was also conducted for Compound (11) as a reference. In FIG. 3, a) UV spectrum change of Compound (14), b) excitation spectra of Compound (14) with fluorescence wavelengths fixed at 495 nm, c) UV spectrum change of Compound (11), and d) excitation spectra of Compound (11) with fluorescence wavelengths fixed at 530 nm are shown. Further, to a 10 μM solution of Compound (15) in 100 mM HEPES buffer (pH 7.4), ZnSO4 was added up to 200 μM. Spectra were measured under the condition described in Example 2.

[4] = Fluorescence characteristics (excitation and emission maxima) before and after addition of zinc ions
Description: Fluorescence characteristics of Compound (11) were studied. Compound (11) was dissolved in 100 mM HEPES buffer (pH 7.4, containing 0.4% DMSO as co-solvent) up to 20 μM and measured excitation spectra.
Hitachi F-4500 fluorescence measurement apparatus
Scanning rate: 240 nm/min
Photomultiplier voltage: 950 V
Measurement temperature: 25° C.
as §2

[5] = 20 μM compound, 20 μM ZnSO4, 100 mM HEPES buffer pH 7.4, 25° C.
[6] = 20 μM compound, 100 mM HEPES buffer pH 7.4, 0.4% DMSO, 25° C.

## COc1cc2cc(-c3ccc(C(=O)O)cc3)oc2cc1NCCN(Cc1ccccn1)Cc1ccccn1 [Compound (11)]
[1]
  Change of the ratio of fluorescence intensities on addition of zinc ions: changed concentration dependent manner of zinc ions
[2]; ions added up to 400 μM, 20 μM compound, 100 mM HEPES pH 7.4
  Change of the ratio of fluorescence intensities on addition of sodium, calcium, potassium or magnesium ions: no change of the ratio was observed
[2]; versus sodium, calcium, potassium, magnesium ions
  Selectivity to zinc ions: high selectivity to zinc ions
[3]; 15 μM compound, ZnSO4 up to 15 μM, HEPES pH 7.4
  Change of absorbance at 335 nm on addition of zinc ions: increases
[3]; 365 nm for Compound (14), 354 nm for Compound (11), 15 μM compound, ZnSO4 up to 15 μM
  Change of absorbance at the long-wavelength maximum on addition of zinc ions: decreases
[3]; excited at 365 nm (Compound (14), emission 495 nm) or 354 nm (Compound (11), emission 530 nm)
  Change of fluorescence excited at the long-wavelength maximum on addition of zinc ions: decreases
[4]; [5]
  Em(nm), after addition of Zn2+: 528 nm
  Ex(nm), after addition of Zn2+: 335 nm
[4]; [6]
  Em(nm), before addition of Zn2+: 532 nm
  Ex(nm), before addition of Zn2+: 354 nm
[4]; blue shift, depending on concentration of zinc ions
  Wavelength shift of the peak of the excitation spectrum on coordination to a zinc ion: about 20 nm
